We go through one molecule from article PMC11995211, “Design, Synthesis, and Evaluation of a New Fluorescent Ligand for the M2 Muscarinic Acetylcholine Receptor” (ACS Medicinal Chemistry Letters, 2025).

One assay concerns the target T1, hM2R (Homo sapiens, UniProt P08172).
T1 construct: expressed in transfected cells; host or cells: CHO cell membranes
T1 sequence (P08172 1-466): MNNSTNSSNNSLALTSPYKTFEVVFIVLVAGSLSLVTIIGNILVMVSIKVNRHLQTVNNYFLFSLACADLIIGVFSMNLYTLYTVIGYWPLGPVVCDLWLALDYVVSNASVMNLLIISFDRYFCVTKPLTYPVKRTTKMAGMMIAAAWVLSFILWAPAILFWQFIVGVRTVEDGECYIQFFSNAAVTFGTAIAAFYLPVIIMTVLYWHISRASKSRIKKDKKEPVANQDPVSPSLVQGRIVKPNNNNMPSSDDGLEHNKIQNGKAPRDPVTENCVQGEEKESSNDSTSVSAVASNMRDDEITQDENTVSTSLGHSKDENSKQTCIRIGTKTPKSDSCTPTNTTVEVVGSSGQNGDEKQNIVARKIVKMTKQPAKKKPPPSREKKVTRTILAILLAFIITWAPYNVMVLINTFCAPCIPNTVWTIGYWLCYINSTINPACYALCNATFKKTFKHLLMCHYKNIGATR
The experiment in a line: Radioligand competition binding, [3H]-scopolamine (N-methyl), CHO cell membranes, hM2R. As to conditions: mean ± SD, n = 3; membranes from CHO cells transfected with hM2R; read-out: Receptor Ki M2.

The target of the next assay is T2, hM3R (Homo sapiens, UniProt P20309).
T2 construct: expressed in transfected cells; host or cells: CHO cell membranes
The experiment in a line: Radioligand competition binding, [3H]-scopolamine (N-methyl), CHO cell membranes, hM3R. As to conditions: mean ± SD, n = 3; membranes from CHO cells transfected with hM3R; read-out: Receptor Ki M3.

Another assay has as its target T3, hM4R (Homo sapiens, UniProt P08173).
T3 construct: expressed in transfected cells; host or cells: CHO cell membranes
T3 sequence (P08173 1-479): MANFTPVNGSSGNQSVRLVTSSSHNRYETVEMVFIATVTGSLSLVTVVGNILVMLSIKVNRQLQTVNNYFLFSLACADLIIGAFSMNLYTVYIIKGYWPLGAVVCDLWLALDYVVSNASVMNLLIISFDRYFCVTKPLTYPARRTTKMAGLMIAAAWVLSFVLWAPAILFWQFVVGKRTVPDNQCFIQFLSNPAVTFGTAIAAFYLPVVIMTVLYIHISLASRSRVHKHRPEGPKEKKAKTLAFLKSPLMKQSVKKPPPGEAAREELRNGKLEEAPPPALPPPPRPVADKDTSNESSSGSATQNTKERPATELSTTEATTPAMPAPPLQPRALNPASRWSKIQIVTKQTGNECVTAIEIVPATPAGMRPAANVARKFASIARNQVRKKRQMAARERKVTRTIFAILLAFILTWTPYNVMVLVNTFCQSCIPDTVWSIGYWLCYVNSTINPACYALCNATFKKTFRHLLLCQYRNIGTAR
Put plainly: Radioligand competition binding, [3H]-scopolamine (N-methyl), CHO cell membranes, hM4R. As to conditions: mean ± SD, n = 3; membranes from CHO cells transfected with hM4R; read-out: Receptor Ki M4. Background: In a radioligand displacement assay an active substance lowers the binding of a labelled ligand.

For a further assay, the target named is T4, M2R (Homo sapiens, UniProt P08172).
T4 sequence (P08172 1-466): T1 sequence (P08172 1-466)
The experiment in a line: BRET-based TRUPATH GoA activation assay, antagonism of carbachol-induced G protein activation. The format is cell-based.

Another assay has as its target T5, GLuc–M2R (Homo sapiens, UniProt P08172).
T5 construct: expressed in transfected cells
T5 sequence (P08172 1-466): T1 sequence (P08172 1-466)
Put plainly: BRET-based ligand binding on HEK 293T cells expressing GLuc–M2R.

A further assay has as its target T6, M2R–Cerulean (Homo sapiens, UniProt P08172).
T6 construct: expressed in transfected cells
T6 sequence (P08172 1-466): T1 sequence (P08172 1-466)
The experiment in a line: Confocal microscopy labeling of live HEK 293T cells. The format is cell-based.

A further assay concerns the target T7, HA–M2R (Homo sapiens, UniProt P08172).
T7 sequence (P08172 1-466): T1 sequence (P08172 1-466)
Put plainly: STED nanoscopy labeling of living HEK 293T cells. In kind it is cell-based. As to conditions: 300 nM. The text has this:
As STED microscopy is used for the deeper investigation of cellular processes even at the subcellular level, we challenged the fluorescent probe 33 in STED nanoscopy (Figure ). For STED, we used the same transfected cells as in the case of two-photon microscopy. Using the STED function and the available largest magnification objective, we observed improvement of optical resolution.
Figure S7. […] Scale bar:
20 μm. Representative images of two independent experiments are shown.
Figure S8. […] Scale bar:
50 μm. Representative images of two independent experiments are shown.
Confocal and STED microscopy
Confocal and STED images were acquired using a Leica TCS SP8 STED 3× inverse […]
well IBIDI chamber slides. The samples were scanned with a Leica HC PL Fluotar 20x/0.55 objective and a PMT detector. A 488 nm laser was used for the excitation of the fluorescent dye OG488 for the confocal imaging, and the spectral detection parameters were 500-550 nm.
(1 picture or pasted object on this page, not shown here)
Simultaneous transmission light imaging was used to detect the cells. For STED imaging, we used the same excitation laser and a Leica HC PL APO 100×/1.40 oil immersion objective and a Leica HyD detector, which was completed with a 660 nm STED (1.5 W, continuous wave) laser for depletion (at 1.17–2.48 × 109 W mm−2 nominal intensity with an output laser power of 1.2 W/32 nm × 32 nm pixel size). […]

T2 sequence (P20309 whole entry): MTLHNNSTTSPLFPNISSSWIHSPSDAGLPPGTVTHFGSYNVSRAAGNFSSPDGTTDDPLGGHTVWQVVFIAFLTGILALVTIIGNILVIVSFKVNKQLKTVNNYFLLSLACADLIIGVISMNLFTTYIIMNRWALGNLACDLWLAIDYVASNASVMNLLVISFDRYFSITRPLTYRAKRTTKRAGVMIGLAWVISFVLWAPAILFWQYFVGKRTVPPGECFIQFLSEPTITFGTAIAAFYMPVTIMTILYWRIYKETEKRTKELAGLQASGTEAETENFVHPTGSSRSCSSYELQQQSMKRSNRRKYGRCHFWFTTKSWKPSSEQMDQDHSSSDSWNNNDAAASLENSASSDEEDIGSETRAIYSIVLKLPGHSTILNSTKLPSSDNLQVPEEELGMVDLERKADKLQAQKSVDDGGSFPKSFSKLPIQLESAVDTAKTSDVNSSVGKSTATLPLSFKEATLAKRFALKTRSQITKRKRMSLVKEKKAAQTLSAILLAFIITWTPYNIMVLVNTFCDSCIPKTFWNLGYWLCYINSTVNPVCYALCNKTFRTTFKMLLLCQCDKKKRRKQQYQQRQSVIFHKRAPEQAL

Turning to `O=C(CCOCCOCCNC(=O)c1ccc(-c2c3cc(F)c(=O)cc-3oc3cc(O)c(F)cc23)c(C(=O)O)c1)NCCOCCOCCNc1ccccc1C(=O)N1CCC(N2CCC(Cc3ccc(S(=O)(=O)c4cccc(Cl)c4)cc3)CC2)CC1` [Compound 33], the figures for the Ki on hM2R, on hM3R and on hM4R were 2.4 ± 0.4 nM, 55600 ± 3240 nM and 54.1 ± 10.4 nM, respectively. In addition, on M2R (TRUPATH GoA assay), the “mode of antagonism of carbachol-induced G protein activation” value is “competitive antagonists”. The “Log(IC50) ± SD (M), carbachol-induced GoA protein activation” value on M2R (log10 of IC50 (negative values), HEK 293T, compound 20 min, then 10 μM carbachol 15 min, Hill-slope = 1, n = 3) is listed as “–7.39 ± 0.09 M”. Further, the dissociation constant Kd (in general, the constant that tells how readily two partners part at equilibrium) at GLuc–M2R (1-hour treatment, nonspecific with 100 μM atropine, read-out: dissociation constant (KD), equilibrium BRET-based ligand binding) is 119 nM. The kon at GLuc–M2R (BRET-based kinetic ligand binding, read-out: association rate constant) was 8060 M⁻¹ s⁻¹. The koff on GLuc–M2R (read-out: dissociation rate constant) was 0.000867 s⁻¹. In addition, the “labeling of M2R–Cerulean-expressing cells” value at M2R–Cerulean (300 nM, 3 min, live transfected HEK 293T) is given as “significant labeling”. In addition, on M2R–Cerulean (300 nM, 3 min, nontransfected HEK 293T), the “labeling of nontransfected cells” value is on record as “no labeling was observed”. In addition, at M2R–Cerulean (100 μM atropine 5 min before 300 nM 33), the “labeling after atropine pretreatment” value is reported as “no labeling”. The “signal location in HA–M2R-expressing cells” value on HA–M2R (living HEK 293T) is on record as “concentrated in the membranes of cells”. For the same molecule, the “fluorescence in control (M2R-negative) cells” value at HA–M2R (non-transfected HEK 293T) is on record as “fluorescence is lacking”.
